Reference: article PMC4977651, “Molecular features of biguanides required for targeting of mitochondrial respiratory complex I and activation of AMP-kinase” (BMC Biology, 2016)
“And” between values parts separate entries of the source, which are not always exact repeats. Identical values can stand only once.

Columns and labels:
143B cells = experiment: Rotenone-sensitive oxygen consumption rate in intact 143B cells; type: cell-based, human; details: for rotenone sensitive OCR after 6 hours of biguanide exposure, % control, average / rotenone sensitive OCR after 6 hours of biguanide exposure, average: biguanide at IC50/10; for rotenone sensitive OCR after 6 hours of biguanide exposure, average: OCR normalized to OCR immediately prior to biguanide addition; for inhibition of rotenone-sensitive respiration (in words): intact 143B cells, biguanide at IC50/10, monitored for 6 h
Method: (§1) 143B (CRL-8303 from ATCC), HepG2 (85011430 from The Health Protection Agency), and MDBK (CCL-22 from ATCC) cells were grown on Dulbecco’s modified Eagle’s medium (DMEM) supplemented with 10 % fetal bovine serum (FBS, Thermo Fisher Scientific) at 37 °C in 5 % CO2. All cells were confirmed as negative for mycoplasma.
(§2) Oxygen consumption rates (OCRs) were measured using a Seahorse XF96 extracellular flux analyzer at 37 °C. For intact cell measurements, 1.4 × 10^4 143B, HepG2, or MDBK cells were plated (per well) in DMEM containing 10 % FBS into Seahorse Bioscience Inc. XF96 plates and incubated for ~12 h at 37 °C in 5 % CO2. Then, the medium was exchanged for assay buffer containing DMEM, 4.5 g L^−1 glucose, 1 mM pyruvate, 32 mM NaCl, 2 mM GlutaMAX, 15 mg L^−1 phenol red, and 20 mM HEPES (pH 7.4 at 37 °C) and the cells placed in a CO2-free incubator at 37 °C for 30 min. Basal oxygen consumption rates were established before the addition of biguanides at one-tenth of their IC50 (IC50/10), and followed for ~ 6 h before the addition of rotenone (2 μM).
(§3) Rotenone-sensitive OCRs were calculated by subtracting the rotenone-insensitive rates (determined at the end of the experiment). OCRs were normalized by dividing by the OCR recorded immediately prior to the addition of biguanide. For rate of uptake calculations, the OCRs at time points after biguanide addition were divided by the OCRs at the same time points in control experiments. Data from wells with failed port injections were excluded from the analyses. The respiratory control ratio (RCR) values (state III versus state IV respiration) were ~11 and ~6 for permeabilized MDBK and 143B cells, respectively.

HepG2 cells = experiment: Rotenone-sensitive oxygen consumption rate in intact HepG2 cells; type: cell-based, human; details: for rotenone sensitive OCR after 6 hours of biguanide exposure, % control, average / rotenone sensitive OCR after 6 hours of biguanide exposure, average: HEPG2 cells, biguanide at IC50/10; for rotenone sensitive OCR after 6 hours of biguanide exposure, average: OCR normalized to OCR immediately prior to biguanide addition; for inhibition of rotenone-sensitive respiration (in words): intact HepG2 cells, biguanide at IC50/10, monitored for 6 h
Method: as §1, §2, §3

MDBK cells = experiment: Rotenone-sensitive oxygen consumption rate in intact MDBK cells; type: cell-based, Bos taurus; parameters: key to rotenone sensitive OCR after 40 mins of biguanide exposure / rotenone sensitive OCR after 40 mins of biguanide exposure, average: % of OCR recorded immediately before biguanide addition; details: biguanide at IC50/10; for rotenone sensitive OCR after 6 hours of biguanide exposure, % control, average / rotenone sensitive OCR after 6 hours of biguanide exposure, average: MDBK cells; for rotenone sensitive OCR after 6 hours of biguanide exposure, average: OCR normalized to OCR immediately prior to biguanide addition; for rotenone sensitive OCR after 40 mins of biguanide exposure, % control, average / rotenone sensitive OCR after 40 mins of biguanide exposure, average / rotenone sensitive OCR after 40 mins of biguanide exposure / rotenone sensitive OCR after 40 mins of biguanide exposure, % control: MDBK intact cells; for rotenone sensitive OCR after 40 mins of biguanide exposure, % control, average / rotenone sensitive OCR after 40 mins of biguanide exposure, average: average of replicates; for rotenone sensitive OCR after 40 mins of biguanide exposure / rotenone sensitive OCR after 40 mins of biguanide exposure, % control: individual replicates
Method: as §1, §2, §3

permeabilized MDBK cells = experiment: ADP-stimulated rotenone-sensitive OCR in permeabilized MDBK cells; type: cell-based, Bos taurus; parameters: rotenone sensitive OCR after ADP stimulation, average / rotenone sensitive OCR after ADP stimulation: unit not given here; details: for rotenone sensitive OCR after ADP stimulation, % of control, average / rotenone sensitive OCR after ADP stimulation, average / rotenone sensitive OCR after ADP stimulation / rotenone sensitive OCR after ADP stimulation, % of control: MDBK permeabilised cells; for rotenone sensitive OCR after ADP stimulation, % of control, average / rotenone sensitive OCR after ADP stimulation, average: average of replicates; for rotenone sensitive OCR after ADP stimulation / rotenone sensitive OCR after ADP stimulation, % of control: individual replicates
Method: For permeabilized cell experiments, cells were seeded into XF96 plates at 0.9–1.1 × 10^4 per well and incubated for 48 h at 37 °C in 5 % CO2. Then, the growth medium was exchanged for assay buffer containing 3 nM plasma membrane permeabilizer ‘PMP’ (Seahorse Biosciences Inc.), 10 mM glutamate, 10 mM malate, 220 mM mannitol, 70 mM sucrose, 10 mM KH2PO4, 5 mM MgCl2, 1 mM EGTA, 0.2 % fatty acid-free bovine serum albumin (BSA), and 2 mM HEPES (pH 7.4 at 37 °C). […] The biguanides were allowed to accumulate for 30 min, then respiration was […] by the addition of 4 mM ADP. Rotenone was added (2 μM) at the end of the experiment.
as §3

AMPK-α (phospho-Thr172) = experiment: AMPK activation, western blot of phospho-AMPK-α in MDBK cells; type: cell-based, Bos taurus; details: for p-alpha, average normalised to control: Averages of experiments 1-3, 18 hours; for p-alpha: band intensity
Method: MDBK cells were seeded at 1 × 10^6 cells per 6 cm dish in DMEM containing 10 % FBS. […] After 18 h cells were harvested by a rapid lysis procedure: cells were rinsed with PBS, then lysed using ice-cold buffer containing 50 mM HEPES, 1 mM EDTA, 10 % glycerol, 50 mM NaF, 5 mM sodium pyrophosphate, 1 % Triton-X100, 1 mM dithiothreitol (DTT), and a protease inhibitor cocktail (Roche). The cell lysate was centrifuged at 14,000 × g for 20 min at 4 °C and the protein concentration of the supernatant determined by bicinchoninic acid assay. The lysate was analyzed using Novex 3–12 % bis-Tris gels run in 3-(N-morpholino)propanesulfonic acid (MOPS) buffer (20 μg of protein per lane) followed by transfer to low fluorescence polyvinylidene fluoride membranes by wet transfer. Primary rabbit antibodies for AMPK-β (57C12), AMPK-α (phospho-Thr172) (40H9), and acetyl-coA carboxylase (phospho-Ser79) (Cell Signaling Technology) were incubated overnight with the membrane (1:1000 dilution) in Odyssey blocking buffer at 4 °C. A fluorescent secondary antibody was used (IRDYE800CW from LI-COR Biosciences, 1:20,000 dilution) with a LI-COR Odyssey imaging system.

Structure (SMILES)	rotenone sensitive OCR after 6 hours of biguanide exposure, % control, average (143B cells; 143B cells) [% control]	rotenone sensitive OCR after 6 hours of biguanide exposure, average (143B cells; 143B cells)	inhibition of rotenone-sensitive respiration (in words) (143B cells)	rotenone sensitive OCR after 6 hours of biguanide exposure, % control, average (HepG2 cells) [% control]	rotenone sensitive OCR after 6 hours of biguanide exposure, average (HepG2 cells)	inhibition of rotenone-sensitive respiration (in words) (HepG2 cells)	rotenone sensitive OCR after 6 hours of biguanide exposure, % control, average (MDBK cells) [% control]	rotenone sensitive OCR after 6 hours of biguanide exposure, average (MDBK cells)	rotenone sensitive OCR after 40 mins of biguanide exposure, % control, average (MDBK cells) [% control]	rotenone sensitive OCR after 40 mins of biguanide exposure, average (MDBK cells)	rotenone sensitive OCR after 40 mins of biguanide exposure (MDBK cells)	rotenone sensitive OCR after 40 mins of biguanide exposure, % control (MDBK cells)	rotenone sensitive OCR after ADP stimulation, % of control, average (permeabilized MDBK cells)	rotenone sensitive OCR after ADP stimulation, average (permeabilized MDBK cells)	rotenone sensitive OCR after ADP stimulation, % of control, average (permeabilized MDBK cells; biguanide at IC50/5)	rotenone sensitive OCR after ADP stimulation, average (permeabilized MDBK cells; biguanide at IC50/5)	rotenone sensitive OCR after ADP stimulation (permeabilized MDBK cells; biguanide at IC50/5)	rotenone sensitive OCR after ADP stimulation, % of control (permeabilized MDBK cells; biguanide at IC50/5)	p-alpha, average normalised to control (AMPK-α (phospho-Thr172))	p-alpha / AMPK beta (AMPK-α (phospho-Thr172); Experiment 1, 18 hours)	other results
N=C(N)NC(N)=Nc1ccccc1 [compound 2, phenyl biguanide]	98.12	115.02	do not	91.28	94.14	do not	99.86	100.16	98.99	100.73	97.96 and 102.05 and 98.68 and 102.17 and 103.50 and 100.00	96.27 % control and 100.30 % control and 96.98 % control and 100.41 % control and 101.71 % control and 98.28 % control	101.81 % of control	286.92	101.81 % of control	286.92	411.58 and 226.55 and 268.24 and 253.43 and 274.79	146.05 % of control and 80.39 % of control and 95.18 % of control and 89.93 % of control and 97.51 % of control	1.18	0.14	p-alpha / AMPK beta normalised to control (AMPK-α (phospho-Thr172); Experiment 1, 18 hours): 1.11; p-alpha (AMPK-α (phospho-Thr172); Experiment 1, 18 hours): 64.6; p-alpha / AMPK beta (AMPK-α (phospho-Thr172); Experiment 2, 18 hours): 0.17; p-alpha / AMPK beta normalised to control (AMPK-α (phospho-Thr172); Experiment 2, 18 hours): 1.14; p-alpha (AMPK-α (phospho-Thr172); Experiment 2, 18 hours): 57.4; p-alpha / AMPK beta (AMPK-α (phospho-Thr172); Experiment 3, 18 hours): 0.27; p-alpha / AMPK beta normalised to control (AMPK-α (phospho-Thr172); Experiment 3, 18 hours): 1.28; p-alpha (AMPK-α (phospho-Thr172); Experiment 3, 18 hours): 57.3
CC(C)N=C(N)N=C(N)NC(C)C [compound 5, N-(propan-2-yl)-1-3-(propan-2-yl)carbamimidamidomethanimidamide]	102.76	120.45	do not	88.37	91.14	do not	95.30	95.59	97.92	99.64	98.03 and 101.32 and 101.34 and 98.05 and 98.68 and 101.35 and 98.70	96.34 % control and 99.57 % control and 99.60 % control and 96.36 % control and 96.98 % control and 99.61 % control and 97.00 % control	94.54 % of control	266.44	94.54 % of control	266.44	341.66 and 308.83 and 224.55 and 216.86 and 280.18 and 213.17 and 210.97 and 335.32	121.23 % of control and 109.59 % of control and 79.68 % of control and 76.95 % of control and 99.42 % of control and 75.64 % of control and 74.86 % of control and 118.98 % of control	1.21	0.13	p-alpha / AMPK beta normalised to control (AMPK-α (phospho-Thr172); Experiment 1, 18 hours): 1.05; p-alpha (AMPK-α (phospho-Thr172); Experiment 1, 18 hours): 62.5; p-alpha / AMPK beta (AMPK-α (phospho-Thr172); Experiment 2, 18 hours): 0.17; p-alpha / AMPK beta normalised to control (AMPK-α (phospho-Thr172); Experiment 2, 18 hours): 1.19; p-alpha (AMPK-α (phospho-Thr172); Experiment 2, 18 hours): 52.5; p-alpha / AMPK beta (AMPK-α (phospho-Thr172); Experiment 3, 18 hours): 0.29; p-alpha / AMPK beta normalised to control (AMPK-α (phospho-Thr172); Experiment 3, 18 hours): 1.38; p-alpha (AMPK-α (phospho-Thr172); Experiment 3, 18 hours): 51.1
CC(C)N=C(N)N=C(N)N [compound 4, 1-(diaminomethylidene)-2-(propan-2-yl)guanidine]	0.91	1.07	inhibit respiration	0.42	0.43	inhibit respiration	18.29	18.34	93.72	95.36	95.78 and 95.98 and 96.95 and 94.61 and 94.86 and 94.00	94.13 % control and 94.32 % control and 95.28 % control and 92.98 % control and 93.22 % control and 92.38 % control	3.16 % of control	8.89	3.16 % of control	8.89	14.20 and 41.21 and 15.97 and 1.99 and -24.18 and 20.17 and 9.00 and -7.21	5.04 % of control and 14.62 % of control and 5.67 % of control and 0.71 % of control and -8.58 % of control and 7.16 % of control and 3.19 % of control and -2.56 % of control	12.85	1.65	estimated rate of uptake into mitochondria (143B cells; 143B cells, 3 mM in the extracellular medium): > 1.5 mM/min; estimated rate of uptake into mitochondria (HepG2 cells; HepG2 cells, 3 mM in the extracellular medium): > 1.5 mM/min; inhibition of OCR (permeabilized MDBK cells; MDBK cells, 30 min, data used for Fig. 4c matrix concentration estimate): exceeded 90%; p-alpha / AMPK beta normalised to control (AMPK-α (phospho-Thr172); Experiment 1, 18 hours): 13.27; p-alpha (AMPK-α (phospho-Thr172); Experiment 1, 18 hours): 732; p-alpha / AMPK beta (AMPK-α (phospho-Thr172); Experiment 2, 18 hours): 1.91; p-alpha / AMPK beta normalised to control (AMPK-α (phospho-Thr172); Experiment 2, 18 hours): 13.08; p-alpha (AMPK-α (phospho-Thr172); Experiment 2, 18 hours): 500; p-alpha / AMPK beta (AMPK-α (phospho-Thr172); Experiment 3, 18 hours): 2.53; p-alpha / AMPK beta normalised to control (AMPK-α (phospho-Thr172); Experiment 3, 18 hours): 12.19; p-alpha (AMPK-α (phospho-Thr172); Experiment 3, 18 hours): 499
